Data as given in the supplement of paper PMC5908809.

Tests used:
[1] = test system: normal NK cells expanded with K562-aAPC; assay: percent inhibition of viability; higher = more inhibition; details: 72 h, IL-2 2.5 ng/mL
Method: (§1)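 Drug sensitivity and resistance testing on K562-aAPC-expanded normal NK cells: 5 concentrations (10-fold steps over a 10,000-fold range), 72 h at 37 °C, viability by CellTiter-Glo normalised to DMSO and benzethonium chloride controls; DSS from the fitted curve.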

[2] = test system: DERL-7 (IL-2 2.5 ng/mL); assay: as above; details: 72 h
[3] = test system: IMC-1 (IL-2 20 ng/mL); assay: as above; details: 72 h
[4] = test system: KAI3 (IL-2 2.5 ng/mL); assay: as above; details: 72 h
[5] = test system: KHYG-1 (IL-2 2.5 ng/mL); assay: as above; details: 72 h
[6] = test system: NK-92 (IL-2 2.5 ng/mL); assay: as above; details: 72 h
[7] = test system: NK-YS (IL-2 2.5 ng/mL); assay: as above; details: 72 h
[8] = test system: NKL (IL-2 2.5 ng/mL); assay: as above; details: 72 h
[9] = test system: SNK-6 (IL-2 2.5 ng/mL); assay: as above; details: 72 h
[10] = test system: YT (IL-2 2.5 ng/mL); assay: as above; details: 72 h
[11] = test system: normal primary NK cells, pool 1 (3 donors) (IL-2 2.5 ng/mL); assay: as above; details: 72 h
[12] = test system: normal primary NK cells, pool 1 (3 donors), resting (IL-2 0 ng/mL); assay: as above; details: 72 h
[13] = test system: normal primary NK cells, pool 2 (3 donors) (IL-2 2.5 ng/mL); assay: as above; details: 72 h
[14] = test system: normal primary NK cells, pool 3 (3 donors) (IL-2 2.5 ng/mL); assay: as above; details: 72 h
[15] = test system: normal NK cells expanded with K562-aAPC; assay: drug sensitivity score (DSS) (DSS units); higher = more sensitive; extreme values may be limits of the assay; details: 72 h; IL-2 2.5 ng/mL
Method: as §1

[16] = test system: DERL-7 (IL-2 2.5 ng/mL); assay: as above; details: 72 h
[17] = test system: IMC-1 (IL-2 20 ng/mL); assay: as above; details: 72 h
[18] = test system: KAI3 (IL-2 2.5 ng/mL); assay: as above; details: 72 h
[19] = test system: KHYG-1 (IL-2 2.5 ng/mL); assay: as above; details: 72 h
[20] = test system: NK-92 (IL-2 2.5 ng/mL); assay: as above; details: 72 h
[21] = test system: NK-YS (IL-2 2.5 ng/mL); assay: as above; details: 72 h
[22] = test system: NKL (IL-2 2.5 ng/mL); assay: as above; details: 72 h
[23] = test system: SNK-6 (IL-2 2.5 ng/mL); assay: as above; details: 72 h
[24] = test system: YT (IL-2 2.5 ng/mL); assay: as above; details: 72 h
[25] = test system: normal primary NK cells, pool 1 (3 donors) (IL-2 2.5 ng/mL); assay: as above; details: 72 h
[26] = test system: normal primary NK cells, pool 1 (3 donors), resting (IL-2 0 ng/mL); assay: as above; details: 72 h
[27] = test system: normal primary NK cells, pool 2 (3 donors) (IL-2 2.5 ng/mL); assay: as above; details: 72 h
[28] = test system: normal primary NK cells, pool 3 (3 donors) (IL-2 2.5 ng/mL); assay: as above; details: 72 h

Cn1cnc2c(F)c(Nc3ccc(Br)cc3Cl)c(C(=O)NOCCO)cc21 [Selumetinib] (max concentration tested 10000 nM)
percent inhibition of viability [%]
Details	1 nM	10 nM	100 nM	1000 nM	10000 nM
[1]	-5.33	-3.66	-3.4	-0.06	16.8
[2]	-4.06	8.89	24.4	38.2	51.5
[3]	-12.4	-11.4	-5.26	-4.59	17.3
[4]	6.76	0.73	4.04	12.1	29.3
[5]	1.06	-1.54	13.7	34.2	61.1
[6]	2.8	1.89	-10.2	-8.53	36.1
[7]	5.92	-5.87	0.1	1.88	27.9
[8]	-4.4	-0.32	26.8	39	72.7
[9]	-18.1	-10.6	-25.8	-31.2	-26.9
[10]	2.15	-4.23	-5.27	-0.32	16.7
[11]	-4.68	-3.55	18.9	23.4	19.1
[12]	-1.79	-0.33	21.2	18.2	16.7
[13]	-9.3	-7.88	3.43	19.3	18.2
[14]	-5.55	-8.58	-1.51	-0.3	13.4

Details	drug sensitivity score
[15]	0.36
[16]	10.2
[17]	0.24
[18]	2.27
[19]	7.98
[20]	1.3
[21]	1.42
[22]	10.8
[23]	0
[24]	0.33
[25]	5.53
[26]	5.28
[27]	2.98
[28]	0.11

C[C@@H]1C=C2C(=O)O[C@@H]3CC[C@H](C1)[C@]23O [Galiellalactone] (max concentration tested 25000 nM)
percent inhibition of viability [%]
Details	2.5 nM	25 nM	250 nM	2500 nM	25000 nM
[1]	-7.73	-4.65	-5.56	8.69	91.9
[2]	-3.32	-2.23	6.78	39.3	101
[3]	-4.12	-5.59	-4.92	-11.8	42.7
[4]	0.86	-9.38	4.52	34.1	99.1
[5]	-7.95	-9.83	-6.41	10.7	80.1
[6]	-18	-14.4	-12.5	13.8	106
[7]	0.84	-3.46	3.95	18.4	64.7
[8]	-8.21	-5.52	-6.69	-5.94	49.3
[9]	-13.8	-22	-28.1	20.7	86
[10]	-7.44	-15.7	-6.7	-3.78	81
[11]	-8.48	6.95	7.01	15.2	93.7
[12]	-12.7	5.72	9.42	27.4	89.3
[13]	-9.13	7.06	4.86	10.7	93.2
[14]	-11.4	1.14	-3.83	2.67	87.7

Details	drug sensitivity score
[15]	6.5
[16]	10.3
[17]	1.6
[18]	9.99
[19]	6.22
[20]	7.95
[21]	6.25
[22]	2.18
[23]	7.97
[24]	4.18
[25]	7.72
[26]	8.44
[27]	6.94
[28]	5.23

Cc1cnc(NC(=O)Nc2cc(Br)c(C)cc2OC[C@@H]2CNCCO2)cn1 [Rabusertib] (max concentration tested 1000 nM)
percent inhibition of viability [%]
Details	0.1 nM	1 nM	10 nM	100 nM	1000 nM
[1]	4.2	-1.61	0.16	13.5	55.7
[2]	5.67	5.69	4.81	4.56	33.5
[3]	-3.74	-1.84	2.04	1.67	9.87
[4]	-0.28	-3.83	3.9	11.6	81
[5]	3.66	7.68	5.93	14.9	103
[6]	-4.77	4.85	16	18.2	86.9
[7]	1.16	1.34	0.68	3.22	65.2
[8]	-16.6	0.3	-1.09	14	86.2
[9]	11.6	6.32	2.12	11.8	62.8
[10]	-0.82	-0.63	1.16	-2	11
[11]	-1.58	-1.28	-6.24	-18	-4.02
[12]	5.84	-6.29	4.9	-19.1	-1.65
[13]	-8.45	5.23	3.94	0.79	15.8
[14]	-20.8	-8.02	3.37	-3.4	8.17

Details	drug sensitivity score
[15]	5.12
[16]	2.31
[17]	0
[18]	6.43
[19]	8.07
[20]	7.67
[21]	4.02
[22]	7.11
[23]	5.37
[24]	0
[25]	0
[26]	0
[27]	0.35
[28]	0
